Data taken from US20080070885.
Like-named read-outs stand apart in the source and are kept apart here.

`CCCCNC(=O)[C@H](C)C[C@H](O)[C@@H]1Cc2cccc(c2)OCCCCC(=O)N[C@@H](C)C(=O)N1` (relative stereo) gave a ring closure, yield of all isomers (from CCCCNC(=O)[C@H](C)C[C@H](O)[C@H](Cc1cccc(OCCCCC(=O)O)c1)NC(=O)[C@H](C)N, amide bond, BOP, diisopropylethylamine, DMF, 7.1 mM, 25.0 °C, 16.0 h) of 1.7%.
In the case of `C[C@@H]1CS(=O)(=O)CCC=CCc2cccc(c2)C[C@@H]([C@@H]2C[C@@H](C)C(=O)O2)NC1=O`, the ring closure, yield of all isomers (from C=CCCS(=O)(=O)C[C@@H](C)C(=O)N[C@@H](Cc1cccc(CC=C)c1)[C@@H]1C[C@@H](C)C(=O)O1, rcm bond, benzylidene(1,3-dimesitylimidazolidin-2-ylidene)(tricyclohexylphosphine)ruthenium dichloride (Grubbs II), dichloromethane, 60.0 °C, 2.5 h) is reported as 74.7%.
